Measurements taken from patent US20140350050A1, “PYRIDINE COMPOUNDS AS INHIBITORS OF KINASE” (TELIGENE LTD., priority 2011, published 2014).
Where two headings read alike, the source gives them in different places.

Assays:
[1] = tested on: EML4-ALK-BAF3 cell line xenograft; type: in vivo; settings: Table C, 40 mg/kg oral gavage once daily
Source text: A representative protocol for the in vivo experiment is as followed to establish the subcutaneous EML4-ALK-BAF3 cell line xenograft model in nude mice and to evaluate the in vivo therapeutic efficacy of the compounds: Animals: Male Balb/c nude mice (6˜8 weeks old) were obtained from SLAC Laboratory Animal, Shanghai, China. Animals were maintained under SPF conditions in sterile filter top cages and housed on HEPA-filtered ventilated racks. Animals received sterile rodent chow and water ad libitum. Cell line: BAF3-EML4-ALK stable cell line, the BAF3 cell which could expressed fusion oncogene EML4-ALK. S.c. Xenograft Models in Athymic Mice: Cells for implantation into athymic mice were harvested and pelleted by centrifugation at 1200 r/min for 5 min. Cells were washed once and resuspended in sterile PBS buffer with 5×10^6 in 200 μl. Then cells were implanted s.c. into the right scapular region of each mouse and allowed to grow to 200˜300 mm^3 before the administration of compound. Preparation of the Dose Formulation: each compound was suspensioned in 0.5% CMC-Na. Randomization: When tumor volumes approach 200˜300 mm^3, the mice will be randomized into 5 groups according to the tumor volume. The day will be denoted as D1 and the treatments will be started at this day. Administered: Dose will be administered with oral gavage needle once daily for number of days. Treatment of compounds administered in 0.5% CMC-Na by p.o. gavage was initiated when tumors were 200˜300 mm^3 in volume. Observations: After inoculation, the animals will be checked daily for morbidity and mortality. At the time of routine monitoring, the animals will be checked for any effects of tumor growth and treatments on normal behavior such as mobility, body weight gain/loss (body weights will be measured twice weekly or every other day), eye/hair matting and any other abnormal effect. Death and observed clinical signs will be recorded on the basis of the numbers of animals within each subset. Tumor Size Measurements: Tumor volume was determined by measurement with electronic vernier calipers every 3 days and tumor volume was calculated as the product of its length×width^2×0.5. Effect studies: Tumor volume was expressed on indicated days as the mean tumor volume ±SD. […] Significant differences between the treated versus the control groups (p<0.05) were determined using t test. At study endpoint, after blood collection, mice were practiced euthanasia by cervical dislocation, the tumor tissue was collected first, then abdominal cavity was cut open, liver and spleen were excised, then weight after the gallblader was removed respectively. Organ weight and Organ/body weight ratios between the treated versus the control groups were compared. Ratios was calculated as follows: Ratios=Organ weight/(body weight-tumor weight). Both organ weight and Organ/body weight ratios were also expressed as mean±SD, and significant differences between the treated versus the control groups (p<0.05) were determined using t test.

[2] = PK (pharmacokinetic) study in rat, cassette dosing; type: in vivo; settings: male, Wistar, plasma
Description: A representative protocol for the PK (pharmacokinetic) is as followed: Animals used were Wistar rat, male and weight about 300-359 grams. Compound 21 and 22 were given either IV or oral to the same animals by cassette dosing. The dose for each compound is 1 mg/kg (volume 5 ml/kg) IV and 2 mg/kg (volume 10 ml/kg) oral. The formulation for IV was in PBS, the pH is adjusted by dilute HCl until compounds were totally dissolved. 0.5% Na-CMC suspension was used for the oral formulation. Sample collection: for IV route, plasma sample were collected at the time point 0.083, 0.25, 0.5, 1, 1.5, 2, 4, 6, 8, 12, 24 h. For oral route, plasma sample were collected at the time point 0.167, 0.33, 0.5, 1, 2, 4, 6, 8, 12, 24 h. Analysis: LC-MS/MS is used to calculate PK parameters: t1/2, tmax, Cmax, Vss and AUC etc.

AUC(0-inf) ([2]; IV cassette 1 mg/kg): 337 ng·h/mL
AUC(0-t) ([2]; IV cassette 1 mg/kg): 336 ng·h/mL
Cmax ([2]; IV cassette 1 mg/kg): 259 ng/mL
MRT ([2]; IV cassette 1 mg/kg): 3.11 h
Tmax ([2]; IV cassette 1 mg/kg): 0.083 h
clearance ([2]; IV cassette 1 mg/kg): 49.5 mL/min/kg
half-life ([2]; IV cassette 1 mg/kg): 3.04 h
AUC(0-inf) ([2]; oral cassette 2 mg/kg): 146 ng·h/mL
AUC(0-t) ([2]; oral cassette 2 mg/kg): 140 ng·h/mL
Cmax ([2]; oral cassette 2 mg/kg): 21 ng/mL
MRT ([2]; oral cassette 2 mg/kg): 5.28 h
Tmax ([2]; oral cassette 2 mg/kg): 4 h
half-life ([2]; oral cassette 2 mg/kg): 3.1 h
bioavailability ([2]; oral cassette 2 mg/kg vs IV 1 mg/kg, read-out: F (bioavailability)): 20.8%
SMILES: [2H]C([2H])([2H])C([2H])([2H])N1CCC(n2cc(-c3cnc(N)c(O[C@H](C)c4c(Cl)ccc(F)c4Cl)c3)cn2)CC1 [Compound 22, (R)-3-(1-(2,6-dichloro-3-fluorophenyl)ethoxy)-5-(1-(1-d5-ethylpiperidin-4-yl)-1H-pyrazol-4-yl)pyridin-2-amine]
Tumor growth inhibition (TGI, %) ([1]; day 2): 22.58%
Tumor growth inhibition (TGI, %) ([1]; day 5): 53.72%
Tumor growth inhibition (TGI, %) ([1]; day 8): 66.61%
Tumor growth inhibition (TGI, %) ([1]; day 11): 82.97%
Tumor growth inhibition (TGI, %) ([1]; day 14): 87.64%
